# From patent US20040171489A1, “Synergistic active compound combinations for controlling harmful plants” (priority 1998, published 2004)
# Assays:
# Alopecurus myosuroides = assay: Example 9 field trials, application 1-3 leaf stage broad-leaved weeds: herbicidal effect; type: in vivo; conditions: 100 g of ai/ha; 120 to 160 days after application
# Procedure: (§1) The herbicidal efficacy of the active compounds or active compound mixtures was scored visually using the treated plots in comparison to untreated control plots. The damage and development of all above-ground parts of the plants were recorded. Scoring was carried out using a percentage scale (100% effect=all plants killed; 50% effect=50% of the plants and the green parts of the plants killed; 0% effect=no noticeable effect=like control plot. The scores of in each case 4 plots were averaged.
# (§2) If the observed activity values already exceed the formal sum of the values for the trials with the individual applications, they also exceed the expected value according to Colby which is calculated using the following formula and which is likewise considered to be an indication of synergism (cf. S. R. Colby; in Weeds 15 (1967) p. 20 to 22):
# (§3) Crop plants were grown outdoors on plots under natural outdoor conditions, and seeds or rhizome pieces of typical harmful plants were laid out or the natural weed growth was utilized. Treatment with the compositions according to the invention was carried out after the harmful plants had emerged and the crop plants were, generally, at the 2- to 4-leaf stage; in some cases (as stated), application of individual active compounds or active compound combinations was carried out pre-emergence (cf. Section 1) or post-emergence (cf. Section 2) or as a sequential treatment partly pre-emergence and/or post-emergence. After the application, for example 2, 4, 6 and 8 weeks after the application, the effect of the preparations was scored visually by comparison with untreated controls (cf. scoring in Section 1). In the field trial as well, the compositions according to the invention have synergistic herbicidal activity against a broad spectrum of economically important weed grasses and broad-leaved weeds. […] Moreover, the effects in essential phases of the scoring period were above the expected values according to Colby, also indicating synergism. In contrast, the crop plants were, as a consequence of the treatments with the herbicidal compositions, damaged only to a small degree, if at all.
# Capsella bursa-pastoris = assay: as above; type: in vivo; conditions: 100 g of ai/ha; 120 to 160 days after application
# Procedure: as §1, §2, §3
# winter wheat = assay: Example 10 pre-emergence application, fall: crop damage; type: in vivo, Triticum aestivum; conditions: 169 days after application
# Text: Seeds or rhizome pieces of monocotyledonous and dicotyledonous weed plants are placed in sandy loam soil in pots and covered with soil. The compositions, formulated in the form of concentrated aqueous solutions, wettable powders or emulsion concentrates, are then applied to the surface of the soil cover as aqueous solution, suspension or emulsion at an application rate of 600 to 800 l of water/ha (converted), in various dosages. After the treatment, the pots are placed in a greenhouse and kept under good growth conditions for the weeds. After the test plants have emerged, the damage to the plants or the negative effects on the emergence is scored visually after a test period of 3 to 4 weeks by comparison with untreated controls. As shown by the test results, the compositions according to the invention have good herbicidal pre-emergence activity against a broad spectrum of weed grasses and broad-leaved weeds.
# as §1, §2, §3
# Matricaria chamomilla [1] = assay: Example 14 field trial, 2- to 4-leaf stage: herbicidal effect; type: in vivo; conditions: 28 days after application
# Procedure: as §1, §2, §3
# summer wheat = assay: Example 14 field trial, 2- to 4-leaf stage: crop damage; type: in vivo, Triticum aestivum; conditions: 28 days after application
# Procedure: The damage and development of all above-ground parts of the plants were recorded.
# Crop plants were grown outdoors on plots under natural outdoor conditions, and seeds or rhizome pieces of typical harmful plants were laid out or the natural weed growth was utilized.
# Lamium amolexicaule = assay: Example 15 field trial, 2- to 4-leaf stage: herbicidal effect; type: in vivo; conditions: 28 days after application
# Procedure: as §1, §2, §3
# Anthemis arvensis = assay: Example 16 field trial, post-emergence, 2- to 3-leaf stage: herbicidal effect; type: in vivo; conditions: 50 g of ai/ha; 69 days after application
# Procedure: as §1, §2, §3
# Galium aparine = assay: as above; type: in vivo; conditions: 50 g of ai/ha; 69 days after application
# Procedure: as §1, §2, §3
# Lamium ssp. = assay: as above; type: in vivo; conditions: 50 g of ai/ha; 69 days after application
# Procedure: as §1, §2, §3
# Matricaria chamomilla [2] = assay: as above; type: in vivo; conditions: 50 g of ai/ha; 69 days after application
# Procedure: as §1, §2, §3
# Myosotis arvensis = assay: as above; type: in vivo; conditions: 50 g of ai/ha; 69 days after application
# Procedure: as §1, §2, §3
# Papaver rhoeas = assay: as above; type: in vivo; conditions: 50 g of ai/ha; 69 days after application
# Procedure: as §1, §2, §3
# Viola arvensis = assay: as above; type: in vivo; conditions: 50 g of ai/ha; 69 days after application
# Procedure: as §1, §2, §3
# winter barley = assay: Example 16 field trial, post-emergence, 2- to 3-leaf stage: crop damage; type: in vivo, Hordeum vulgare; conditions: 50 g of ai/ha; 69 days after application
# Procedure: as §1, §2
# (§4) Crop plants were grown outdoors on plots under natural outdoor conditions, and seeds or rhizome pieces of typical harmful plants were laid out or the natural weed growth was utilized. […] After the application, for example 2, 4, 6 and 8 weeks after the application, the effect of the preparations was scored visually by comparison with untreated controls (cf. scoring in Section 1). […]
# Echinochloa crus-galli = assay: Example 19 field trial, 4 to 5-leaf stage: herbicidal effect; type: in vivo; conditions: 100 g of ai/ha; 31 days after application
# Procedure: as §1, §2, §4
# Setaria viridis = assay: as above; type: in vivo; conditions: 100 g of ai/ha; 31 days after application
# Procedure: as §1, §2, §4
# Pharbitis purpurea = assay: Example 21 field trial, 4-leaf stage: herbicidal effect; type: in vivo; conditions: 42 days after application
# Procedure: as §1, §2
# as §3, with “In contrast, the crop plants were, as a consequence of the treatments with the herbicidal compositions, damaged only to a small degree, if at all.” left out
smiles,measurement,setting,value
"CC(C)(F)c1nc(N)nc(NC(CCc2ccccc2)C2CCC2)n1 (centres unmarked) [(A1), 4-amino-6-(1-fluoro-1-methylethyl)-2-(3-phenyl-1-cyclobutylpropylamino)-1,3,5-triazine]","herbicidal effect, ALOMY",Alopecurus myosuroides,0%
same,"herbicidal effect, CAPBP",Capsella bursa-pastoris,88%
same,"damage, TRZAW",winter wheat; 50 g of ai/ha,1%
same,"damage, TRZAW",winter wheat; 100 g of ai/ha,2%
same,"herbicidal effect, MATCH",Matricaria chamomilla [1]; 25 g of ai/ha,43%
same,"herbicidal effect, MATCH",Matricaria chamomilla [1]; 50 g of ai/ha,58%
same,"herbicidal effect, MATCH",Matricaria chamomilla [1]; 100 g of ai/ha,73%
same,"damage, TRZAS",summer wheat; 25 g of ai/ha,2%
same,"damage, TRZAS",summer wheat; 50 g of ai/ha,2%
same,"damage, TRZAS",summer wheat; 100 g of ai/ha,5%
same,"herbicidal effect, LAMAM",Lamium amolexicaule; 25 g of ai/ha,60%
same,"herbicidal effect, LAMAM",Lamium amolexicaule; 50 g of ai/ha,74%
same,"herbicidal effect, LAMAM",Lamium amolexicaule; 100 g of ai/ha,80%
same,"herbicidal effect (%), ANTAR",Anthemis arvensis,0%
same,"herbicidal effect (%), GALAP",Galium aparine,66%
same,"herbicidal effect (%), LAMSS",Lamium ssp.,53%
same,"herbicidal effect (%), MATCH",Matricaria chamomilla [2],19%
same,"herbicidal effect (%), MYOAR",Myosotis arvensis,81%
same,"herbicidal effect (%), PAPRH",Papaver rhoeas,96%
same,"herbicidal effect (%), VIOAR",Viola arvensis,90%
same,"herbicidal effect (%), HORVW (crop)",winter barley,0%
same,"herbicidal effect, ECHCG",Echinochloa crus-galli,0%
same,"herbicidal effect, SETVI",Setaria viridis,0%
same,"herbicidal effect, PHBPU",Pharbitis purpurea; 25 g of ai/ha,90%
same,"herbicidal effect, PHBPU",Pharbitis purpurea; 50 g of ai/ha,95%
same,"herbicidal effect, PHBPU",Pharbitis purpurea; 100 g of ai/ha,97%
